In patent publication US20260042764A1, “COMPOSITIONS AND METHODS FOR INHIBITION OF KRAS” (TheRas, Inc., priority 2022, published 2026):

Tests used:
[1] = molecular target: T1, Avi-KRAS WT (1-169) GppNHp/RAF1 RBD-3xFLAG (52-151) (Homo sapiens, UniProt P01116); assay: Raf1-KRAS WT-GppNHP disruption HTRF assay (Biological Example 1); assay type: binding; conditions: KRAS WT, GppNHp-loaded; Table 11
T1 construct: Avi-KRAS WT (1-169)
Procedure, shortened: (§1)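 Measured with a KRAS/RAF1 HTRF assay at pH 7.5 in 10% DMSO, with two 1 h room-temperature incubations with shaking.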

GP2d cells (KRAS G12D) = assay: Cell-based pERK HTRF assay in GP2d cell (Biological Example 2); conditions: GP2d (KRAS G12D) cells, pERK HTRF
Procedure, shortened: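 Phospho-ERK in lysed cells was detected by HTRF using Eu cryptate and d2 antibodies, read between 4 and 24 h at room temperature. Prior to lysis, KRAS G12D GP2d cells, seeded the day before in DMEM with 10% FBS, were exposed to compounds for 60 min. Compounds were tested as 9-point half-log curves from 1 μM or 100 nM top, with 0.25% DMSO.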

[2] = molecular target: T2, Avi-KRAS G12D (1-169) GppNHp/RAF1 RBD-3xFLAG (52-151) (Homo sapiens, UniProt P01116, G12D); assay: Raf1-KRAS G12D-GppNHP disruption HTRF assay (Biological Example 1); assay type: binding; conditions: KRAS G12D, GppNHp-loaded; Table 11
T2 construct: Avi-KRAS G12D (1-169)
T2 sequence (P01116 1-169 isoform P01116-2 G12D): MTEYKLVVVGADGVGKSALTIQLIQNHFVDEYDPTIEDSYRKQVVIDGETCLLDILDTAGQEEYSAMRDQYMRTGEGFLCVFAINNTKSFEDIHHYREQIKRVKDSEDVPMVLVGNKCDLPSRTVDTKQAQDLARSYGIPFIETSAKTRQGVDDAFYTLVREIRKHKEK
Procedure, shortened: as §1

[3] = molecular target: T3, Avi-KRAS G12V (1-169) GppNHp/RAF1 RBD-3xFLAG (52-151) (Homo sapiens, UniProt P01116, G12V); assay: Raf1-KRAS G12V-GppNHP disruption HTRF assay (Biological Example 1); assay type: binding; conditions: KRAS G12V, GppNHp-loaded; Table 11
T3 construct: Avi-KRAS G12V (1-169)
T3 sequence (P01116 1-169 isoform P01116-2 G12V): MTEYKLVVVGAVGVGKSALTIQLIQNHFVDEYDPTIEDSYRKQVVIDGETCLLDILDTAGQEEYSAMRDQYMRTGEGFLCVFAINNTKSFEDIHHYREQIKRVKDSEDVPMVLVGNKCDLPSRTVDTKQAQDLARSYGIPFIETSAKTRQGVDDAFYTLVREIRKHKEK
Procedure, shortened: as §1

[4] = molecular target: T4, Avi-KRAS G12R (1-169) GppNHp/RAF1 RBD-3xFLAG (52-151) (Homo sapiens, UniProt P01116, G12R); assay: Raf1-KRAS G12R-GppNHP disruption HTRF assay (Biological Example 1); assay type: binding; conditions: KRAS G12R, GppNHp-loaded; Table 11
T4 construct: Avi-KRAS G12R (1-169)
T4 sequence (P01116 1-169 isoform P01116-2 G12R): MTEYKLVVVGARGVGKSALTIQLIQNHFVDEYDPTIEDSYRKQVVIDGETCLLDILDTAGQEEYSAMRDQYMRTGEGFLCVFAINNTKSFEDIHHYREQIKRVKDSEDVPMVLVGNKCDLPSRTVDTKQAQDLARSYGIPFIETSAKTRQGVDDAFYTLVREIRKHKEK
Procedure, shortened: as §1

T1 sequence (P01116 1-169 isoform P01116-2): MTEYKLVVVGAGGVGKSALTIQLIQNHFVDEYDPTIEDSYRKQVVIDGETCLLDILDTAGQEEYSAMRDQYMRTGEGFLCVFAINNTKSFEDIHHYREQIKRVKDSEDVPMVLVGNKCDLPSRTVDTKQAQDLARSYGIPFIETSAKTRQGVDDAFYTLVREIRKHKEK

| IC50 [1] | IC50 (GP2d cells (KRAS G12D); GP2d) | IC50 [2] | IC50 [3] | IC50 [4] | IC50 (GP2d cells (KRAS G12D)) | Structure (SMILES) |
| --- | --- | --- | --- | --- | --- | --- |
| 0.1 to 1 µM | < 0.1 µM | 0.1 to 1 µM | 0.1 to 1 µM | 0.1 to 1 µM |  | CCN(CCO)c1nc(OC[C@@H]2C[C@@H](F)CN2C)nc2c(F)c(-c3ccc(F)c4sc(N)c(C#N)c34)c(C(F)(F)F)cc12 [Compound 177] |
| 1 to 10 µM |  | 0.1 to 1 µM | 1 to 10 µM | 0.1 to 1 µM | < 0.1 µM | CCN(CCO)c1nc(OC[C@@H]2C[C@@H](OC)CN2C)nc2c(F)c(-c3ccc(F)c4sc(N)c(C#N)c34)c(C(F)(F)F)cc12 [Compound 178] |
| 0.1 to 1 µM | < 0.1 µM | 0.1 to 1 µM | 0.1 to 1 µM | 0.1 to 1 µM |  | CCN(CCO)c1nc(OC[C@@H]2CCCN2C)nc2c(F)c(-c3ccc(F)c4sc(N)c(C#N)c34)c(C(F)(F)F)cc12 [Compound 179] |
| > 10 µM |  | > 10 µM | > 10 µM | > 10 µM | > 1 µM | CCN(C)c1nc(OC[C@@]23CCCN2C[C@H](F)C3)nc2c(F)c(-c3ccc(F)c4sc(N)c(C#N)c34)c(C(F)(F)F)cc12 (single isomer, unassigned) [Compound 197] |
| < 0.1 µM | < 0.1 µM | < 0.1 µM | 0.1 to 1 µM | < 0.1 µM |  | N#Cc1c(N)sc2c(F)ccc(-c3c(C(F)(F)F)cc4c(N(CCO)CCO)nc(OC[C@@]56CCCN5C[C@H](F)C6)nc4c3F)c12 [Compound 174] |
| 0.1 to 1 µM | < 0.1 µM | 0.1 to 1 µM | 0.1 to 1 µM | 0.1 to 1 µM |  | N#Cc1c(N)sc2c(F)ccc(-c3c(C(F)(F)F)cc4c(N5CC[C@H](CO)C5)nc(OC[C@@]56CCCN5C[C@H](F)C6)nc4c3F)c12 [Compound 123] |
| 0.1 to 1 µM | < 0.1 µM | 0.1 to 1 µM | 0.1 to 1 µM | 0.1 to 1 µM |  | CC(=O)N1CC[C@H](N(C)c2nc(OC[C@@]34CCCN3C[C@H](F)C4)nc3c(F)c(-c4ccc(F)c5sc(N)c(C#N)c45)c(C(F)(F)F)cc23)[C@H]1C [Compound 191] |
| 0.1 to 1 µM | < 0.1 µM | 0.1 to 1 µM | 0.1 to 1 µM | 0.1 to 1 µM |  | CN(c1nc(OC[C@@]23CCCN2C[C@H](F)C3)nc2c(F)c(-c3ccc(F)c4sc(N)c(C#N)c34)c(C(F)(F)F)cc12)C1CCC1 [Compound 22] |
| < 0.1 µM | < 0.1 µM | < 0.1 µM | 0.1 to 1 µM | 0.1 to 1 µM |  | CN(c1nc(OC[C@@]23CCCN2C[C@H](F)C3)nc2c(F)c(-c3ccc(F)c4sc(N)c(C#N)c34)c(C(F)(F)F)cc12)[C@H]1C[C@@H](O)C1 [Compound 18, 2-amino-7-fluoro-4-(8-fluoro-2-(((2R,7aS)-2-fluorotetrahydro-1H-pyrrolizin-7a(5H)-yl)methoxy)-4-(((1s,3R)-3-hydroxycyclobutyl)(methyl)amino)-6-(trifluoromethyl)quinazolin-7-yl)benzo[b]thiophene-3-carbonitrile] |
| 0.1 to 1 µM | < 0.1 µM | 0.1 to 1 µM | 0.1 to 1 µM | 0.1 to 1 µM |  | CCC(=O)N1CC[C@@H](N(C)c2nc(OC[C@@]34CCCN3C[C@H](F)C4)nc3c(F)c(-c4ccc(F)c5sc(N)c(C#N)c45)c(C(F)(F)F)cc23)[C@H]1C [Compound 116] |
| 0.1 to 1 µM | < 0.1 µM | 0.1 to 1 µM | 0.1 to 1 µM | 0.1 to 1 µM |  | CN(c1nc(OC[C@@]23CCCN2C[C@H](F)C3)nc2c(F)c(-c3ccc(F)c4sc(N)c(C#N)c34)c(C(F)(F)F)cc12)C1CCC(O)CC1 (stereo partly shown) [Compound 65] |
| 0.1 to 1 µM | < 0.1 µM | 0.1 to 1 µM | 0.1 to 1 µM | 0.1 to 1 µM |  | CCCN(C)c1nc(OC[C@@]23CCCN2C[C@H](F)C3)nc2c(F)c(-c3ccc(F)c4sc(N)c(C#N)c34)c(C(F)(F)F)cc12 [Compound 120] |
| 0.1 to 1 µM | < 0.1 µM | 0.1 to 1 µM | 0.1 to 1 µM | 0.1 to 1 µM |  | CN(CC(F)F)c1nc(OC[C@@]23CCCN2C[C@H](F)C3)nc2c(F)c(-c3ccc(F)c4sc(N)c(C#N)c34)c(C(F)(F)F)cc12 [Compound 164] |
| 0.1 to 1 µM | < 0.1 µM | < 0.1 µM | 0.1 to 1 µM | 0.1 to 1 µM |  | CCN(c1nc(OC[C@@]23CCCN2C[C@H](F)C3)nc2c(F)c(-c3ccc(F)c4sc(N)c(C#N)c34)c(C(F)(F)F)cc12)[C@H]1C[C@@H](O)C1 [Compound 26, 2-amino-4-[4-[ethyl-(3-hydroxycyclobutyl)amino]-8-fluoro-2-[[(2R,8S)-2-fluoro-1,2,3,5,6,7-hexahydropyrrolizin-8-yl]methoxy]-6-(trifluoromethyl)quinazolin-7-yl]-7-fluoro-benzothiophene-3-carbonitrile] |

Second part, the compound before the results:

| Structure (SMILES) | IC50 [1] | IC50 (GP2d cells (KRAS G12D); GP2d) | IC50 [2] | IC50 [3] | IC50 [4] | IC50 (GP2d cells (KRAS G12D)) |
| --- | --- | --- | --- | --- | --- | --- |
| CN(c1nc(OC[C@@]23CCCN2C[C@H](F)C3)nc2c(C#N)c(-c3ccc(F)c4sc(N)c(C#N)c34)c(Cl)cc12)[C@H]1C[C@@H](O)C1 [Compound 30, 7-(2-amino-3-cyano-7-fluorobenzo[b]thiophen-4-yl)-6-chloro-2-(((2R,7aS)-2-fluorotetrahydro-1H-pyrrolizin-7a(5H)-yl)methoxy)-4-(((1s,3R)-3-hydroxycyclobutyl)(methyl)amino)quinazoline-8-carbonitrile] | 0.1 to 1 µM | 0.1 to 1 µM | 0.1 to 1 µM | 0.1 to 1 µM | 0.1 to 1 µM |  |
| N#Cc1c(N)sc2c(F)ccc(-c3c(C(F)(F)F)cc4c(N5CCCC5)nc(OC[C@@]56CCCN5C[C@H](F)C6)nc4c3F)c12 [Compound 156] | 0.1 to 1 µM | < 0.1 µM | 0.1 to 1 µM | 0.1 to 1 µM | 0.1 to 1 µM |  |
| N#Cc1c(N)sc2c(F)ccc(-c3c(C(F)(F)F)cc4c(N5C[C@H](F)[C@@H](F)C5)nc(OC[C@@]56CCCN5C[C@H](F)C6)nc4c3F)c12 [Compound 158] | 0.1 to 1 µM | < 0.1 µM | 0.1 to 1 µM | 0.1 to 1 µM | 0.1 to 1 µM |  |
| C[C@@H]1CN(c2nc(OC[C@@]34CCCN3C[C@H](F)C4)nc3c(F)c(-c4ccc(F)c5sc(N)c(C#N)c45)c(C(F)(F)F)cc23)C[C@@H](C)O1 [Compound 144] | 0.1 to 1 µM | < 0.1 µM | 0.1 to 1 µM | 1 to 10 µM | 0.1 to 1 µM |  |
| N#Cc1c(N)sc2c(F)ccc(-c3c(C(F)(F)F)cc4c(N5CCC6(CC5)CC(O)C6)nc(OC[C@@]56CCCN5C[C@H](F)C6)nc4c3F)c12 [Compound 45] | 0.1 to 1 µM | 0.1 to 1 µM | 0.1 to 1 µM | 0.1 to 1 µM | 0.1 to 1 µM |  |
| N#CC[C@H]1CN(c2nc(OC[C@@]34CCCN3C[C@H](F)C4)nc3c(F)c(-c4ccc(F)c5sc(N)c(C#N)c45)c(C(F)(F)F)cc23)CCO1 [Compound 137] | 0.1 to 1 µM | < 0.1 µM | 0.1 to 1 µM | 1 to 10 µM | 0.1 to 1 µM |  |
| C[C@H](O)C1CCN(c2nc(OC[C@@]34CCCN3C[C@H](F)C4)nc3c(F)c(-c4ccc(F)c5sc(N)c(C#N)c45)c(C(F)(F)F)cc23)CC1 [Compound 50] | 0.1 to 1 µM | 0.1 to 1 µM | 0.1 to 1 µM | 1 to 10 µM | 1 to 10 µM |  |
| CN(c1nc(OC[C@@]23CCCN2C[C@H](F)C3)nc2c(F)c(-c3ccc(F)c4scc(C#N)c34)c(C(F)(F)F)cc12)[C@@H]1CCN(C(=O)CO)C1 [Compound 107] | > 10 µM | > 1 µM | > 10 µM | > 10 µM | > 10 µM |  |
| N#Cc1c(N)sc2c(F)ccc(-c3c(C(F)(F)F)cc4c(N5CC[C@H](O)C5)nc(OC[C@@]56CCCN5C[C@H](F)C6)nc4c3F)c12 [Compound 125] | 0.1 to 1 µM | < 0.1 µM | 0.1 to 1 µM | 0.1 to 1 µM | 0.1 to 1 µM |  |
| C[C@@H]1CN(c2nc(OC[C@@]34CCCN3C[C@H](F)C4)nc3c(F)c(-c4ccc(F)c5sc(N)c(C#N)c45)c(C(F)(F)F)cc23)[C@@H](C)CO1 [Compound 140] | 1 to 10 µM | < 0.1 µM | 0.1 to 1 µM | 1 to 10 µM | 1 to 10 µM |  |
| CN(CCO)c1nc(OC[C@@]23CCCN2C[C@H](F)C3)nc2c(F)c(-c3ccc(F)c4sc(N)nc34)c(C(F)(F)F)cc12 [Compound 82] | 1 to 10 µM | 0.1 to 1 µM | 0.1 to 1 µM | 1 to 10 µM | 1 to 10 µM |  |
| CS(=O)(=O)N1CCN(c2nc(OC[C@@]34CCCN3C[C@H](F)C4)nc3c(F)c(-c4ccc(F)c5sc(N)c(C#N)c45)c(C(F)(F)F)cc23)CC1 [Compound 96] | 1 to 10 µM | < 0.1 µM | 1 to 10 µM | 1 to 10 µM | 1 to 10 µM |  |
